Measurements as given in patent US20080255111A1, “Tissue Factor Production Inhibitor” (SANKYO COMPANY LIMITED, priority 2004, published 2008).

These compounds were tested on tissue factor mRNA in LPS-stimulated mouse peritoneal macrophages (assay: Assay of mouse peritoneal macrophage tissue factor mRNA). Conditions: 6 h, read-out: Expressed Amount of Tissue Factor mRNA.
Type: cell-based
Method: 3 ml of thioglycolate (Sigma Chemical) were administered into the abdominal cavity of male C57BL/6J mice (Charles River) followed 4 days later by intraperitoneal administration of 10 ml of phosphate-buffered saline (hereinafter PBS) containing heparin (Hishiyama Pharmaceutical) at a concentration of 5 U/ml and recovery of intraperitoneal macrophages using a syringe. After centrifuging the recovered macrophages at 1000 rpm and 4° C. for 5 minutes, the supernatant was discarded followed by suspending in RPMI 1640 medium (Gibco Laboratories) containing normal fetal bovine serum (hereinafter FBS) at a concentration of 10%. The macrophages were adjusted to a concentration of 4×10^6 cells/ml, disseminated in 1 ml aliquots in a 12-well plate, and cultured for 3 hours at 37° C. using a CO2 incubator. Subsequently, the cells were washed with PBS, and the medium was replaced with RPMI medium containing lipoprotein-deficient serum (hereinafter LPDS) (Sigma Chemical) at a concentration of 5%. Test compounds dissolved in dimethylsulfoxide (DMSO) at a concentration of 1 μM were added to make a final DMSO concentration of 0.1%, and after warming for 18 hours at 37° C., lipopolysaccharide (hereinafter LPS) (Sigma Chemical) was added to make a concentration of 100 ng/ml. The cells were recovered 6 hours later, RNA was extracted using the Rneasy Mini Kit (Qiagen), and after carrying out a reverse transcription reaction using the First-Strand cDNA Synthesis Kit (Amersham Biosciences), the expressed amounts of tissue factor mRNA and cyclophylin mRNA were measured by quantitative RT-PCR (TaqMan, Applied Biosystems 7700 Sequence Detector).
Quantitative RT-PCR for tissue factor was carried out using the aforementioned TF-1 and TF-2 as primers and TF-P as probes, while quantitative PCR for cyclophilin was carried out using the aforementioned Cyl-1 and Cyl-2 as primers and Cyl-P as probes. Both were carried out by warming for 2 minutes at 50° C. and then for 10 minutes at 95° C., followed by 40 warming cycles consisting of warming for 15 seconds at 95° C. and then for 1 minute at 60° C. The expressed amount of tissue factor mRNA was calculated as a relative value of the expressed amount of cyclophilin mRNA. The expressed amounts of tissue factor mRNA resulting from the test compounds at a concentration of 1 μM or 10 μM based on a value of 100 for the expressed amount of tissue factor mRNA in a case of treatment with DMSO at a concentration of […] are shown in Table 7.
`C[C@H](CCC(=O)N(C)C)[C@H]1CCC2C3CC=C4C[C@@H](O)CC[C@]4(C)C3CC[C@@]21C` (stereo partly drawn) [Compound J, N,N-Dimethyl-3β-hydroxycholenamide, reference compound] showed a mrna remaining at 10 µM of 39.3%.

Same assay, conditions: test compound 1 μM, 18 h, then LPS 100 ng/ml for 6 h, relative to cyclophilin mRNA, DMSO treatment = 100, read-out: Expressed Amount of Tissue Factor mRNA
With `O=S(=O)(c1ccccc1)N(CC(F)(F)F)c1ccc(C(O)(C(F)(F)F)C(F)(F)F)cc1` [Compound A, N-(2,2,2-Trifluoroethyl)-N-{4-[2,2,2-trifluoro-1-hydroxy-1-(trifluoromethyl)ethyl]phenyl}benzenesulfonamide, reference compound] the mrna remaining at 1 µM was 20%.
In the case of `O=c1c2cc(OCCO)ccc2nc(Cc2ccccc2)n1-c1ccc(C(O)(C(F)(F)F)C(F)(F)F)cc1` [Compound E, 2-Benzyl-6-(2-hydroxyethoxy)-3-[4-[2,2,2-trifluoro-1-hydroxy-1-(trifluoromethyl)ethyl]phenyl]-4(3H)-quinazolinone], the mrna remaining at 1 µM is reported as 37.7%.
With `O=c1c2cc(-c3ccccn3)ccc2nc(Cc2ccccc2)n1-c1ccc(C(O)(C(F)(F)F)C(F)(F)F)cc1` [Compound F, 2-Benzyl-6-(2-pyridyl)-3-[4-[2,2,2-trifluoro-1-hydroxy-1-(trifluoromethyl)ethyl]phenyl]-4(3H)-quinazolinone] the mrna remaining at 1 µM was 76.9%.
For `Cc1cc(C(O)(C(F)(F)F)C(F)(F)F)ccc1-n1c(Cc2cccnc2)nc2ccc(-n3cncn3)cc2c1=O` [Compound I, 3-{2-Methyl-4-[2,2,2-trifluoro-1-hydroxy-1-(trifluoromethyl)ethyl]phenyl}-2-(3-pyridylmethyl)-6-(1H-1,2,4-triazol-1-yl)-4(3H)-quinazolinone], the mrna remaining at 1 µM was 48.6%.
`CC(=O)N(C)c1ccc(OCc2cc3ccc(F)cc3n2C(=O)OC(C)(C)C)cc1` [Reference Example 3, tert-Butyl 2-({4-[acetyl(methyl)amino]phenoxy}methyl)-6-fluoro-1H-indole-1-carboxylate] gave a mrna remaining at 1 µM of 67.9%.
Compound `CN(C(=S)C1CC1)c1ccc(OCc2cc3c(F)cc(F)cc3n2C(=O)OC(C)(C)C)cc1` [Reference Example 4, tert-Butyl 2-({4-[(cyclopropylcarbonothioyl)(methyl)amino]phenoxy}methyl)-4,6-difluoro-1H-indole-1-carboxylate] has a mrna remaining at 1 µM of 57.6%.
For `CN(C(=O)C1CC1)c1ccc(OCc2ccc(C(F)(F)F)c(O)c2C(=O)OC(C)(C)C)cc1` [Reference Example 5, tert-Butyl 6-({4-[(cyclopropylcarbonyl)(methyl)amino]phenoxy}methyl)-2-hydroxy-3-(trifluoromethyl)benzoate], the mrna remaining at 1 µM was 64.3%.

Same assay, conditions: test compound 10 μM, 18 h, then LPS 100 ng/ml for 6 h, relative to cyclophilin mRNA, DMSO treatment = 100, read-out: Expressed Amount of Tissue Factor mRNA
For `Cc1ccc(Cc2nc3ccc(-n4ccnc4)cc3c(=O)n2-c2ccc(C(O)(C(F)(F)F)C(F)(F)F)cc2C)cc1` [Compound G, 6-(1H-Imidazol-1-yl)-2-(4-methylbenzyl)-3-{2-methyl-4-[2,2,2-trifluoro-1-hydroxy-1-(trifluoromethyl)ethyl]phenyl}-4(3H)-quinazolinone], the mrna remaining at 10 µM was 44.7%.
`COc1cc(-n2c(Cc3ccccc3)nc3cc(N4CCOCC4)c(F)cc3c2=O)ccc1C(O)(C(F)(F)F)C(F)(F)F` [Compound H, 2-Benzyl-6-fluoro-3-{3-methoxy-4-[2,2,2-trifluoro-1-hydroxy-1-(trifluoromethyl)ethyl]phenyl}-7-(4-morpholinyl)-4(3H)-quinazolinone] showed a mrna remaining at 10 µM of 56%.
`COc1cc2nc(Cc3ccsc3)n(-c3cc(C(O)(C(F)(F)F)C(F)(F)F)ccc3C)c(=O)c2cc1Cl` [Reference Example 1, 6-Chloro-7-methoxy-3-{2-methyl-5-[2,2,2-trifluoro-1-hydroxy-1-(trifluoromethyl)ethyl]phenyl}-2-(3-thienylmethyl)-4(3H)-quinazolinone] gave a mrna remaining at 10 µM of 41.1%.
`COc1cc2nc(Cc3cccc(F)c3)n(-c3cc(C(O)(C(F)(F)F)C(F)(F)F)ccc3C)c(=O)c2cc1OC` [Reference Example 2, 2-(3-Fluorobenzyl)-6,7-dimethoxy-3-{2-methyl-5-[2,2,2-trifluoro-1-hydroxy-1-(trifluoromethyl)ethyl]phenyl}-4(3H)-quinazolinone] gave a mrna remaining at 10 µM of 45.2%.
